Consider three compounds from patent US7294496B1, “Cloned human lysophospholipase” (The Regents of the University of California, priority 2000, dated 2007).

The target of assay [1] is T1, human recombinant LysoPLA (Homo sapiens, UniProt O75608, F152L).
T1 construct: made in house; host or cells: E. coli BL21(DE3)
The class given is biochemical.

The target of the next assay is mouse LysoPLA (Mus musculus, UniProt P97823). Description: Inhibition of mouse LysoPLA. The format is biochemical. How it is done: Various concentrations of each inhibitor (BioMol) were prepared in DMSO. 5 μl of each inhibitor was added to 480 μl of LysoPC substrate (125 μM Ly-soPC in the assay buffer). Enzyme (either mouse or human PLA) was added to the substrate-inhibitor mixture to start the reaction, which was incubated at 40° C. for 30 min. Control experiments were performed with the same amount of enzyme with 5 μl DMSO in the incubation mixture. The reversibility of the inhibition was tested by pre-incubation of the enzyme in the presence or absence of the inhibitor, followed by overnight dialysis in the assay buffer. The recovery of the enzyme activity as a function of time was then followed. Each data point represents an average of duplicates.
mouse LysoPLA, sequence (P97823 whole entry): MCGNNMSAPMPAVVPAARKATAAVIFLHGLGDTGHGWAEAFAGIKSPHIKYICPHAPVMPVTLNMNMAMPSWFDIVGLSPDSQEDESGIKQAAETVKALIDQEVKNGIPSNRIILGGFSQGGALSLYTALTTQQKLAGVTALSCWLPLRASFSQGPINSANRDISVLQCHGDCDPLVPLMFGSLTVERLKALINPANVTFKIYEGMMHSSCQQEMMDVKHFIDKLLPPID

Where [2] appears, read: mouse enzyme, 125 μM LysoPC, similar results as human enzyme.

Where two headings read alike, the source gives them in different places.

T1 sequence (O75608 whole entry F152L): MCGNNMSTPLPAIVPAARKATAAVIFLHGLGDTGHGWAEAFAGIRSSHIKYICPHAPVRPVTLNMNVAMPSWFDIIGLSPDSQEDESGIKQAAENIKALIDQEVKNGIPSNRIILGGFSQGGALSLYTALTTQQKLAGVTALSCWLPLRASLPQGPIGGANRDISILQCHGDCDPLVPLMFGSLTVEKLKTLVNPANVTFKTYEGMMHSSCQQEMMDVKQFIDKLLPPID

For `O=C1O/C(=C/Br)CCC1c1cccc2ccccc12` (stereo not drawn) [BEL, bromoenol lactone], the “inhibition of LysoPLA activity (in words)” value (from here on “inhibition”) in assay [1] (human enzyme, 125 μM LysoPC) was “neither of them inhibited the LysoPLA activity well”; against mouse LysoPLA (setting [2]), “neither of them inhibited the LysoPLA activity well”.

`CCCCCCCCCCCCCCCCOC[C@@H](O)COP(=O)([O-])OCC[N+](C)(C)C` [LysoPAF]: the “inhibition” value (in assay [1]; on mouse LysoPLA) was “not a good inhibitor” throughout.

Turning to `CCCCCCCCCCCCCCCC(=O)C(F)(F)F` [PACOCF3, palmitoyl tri£uoromethyl ketone], the “inhibition” value in assay [1] (human enzyme, 125 μM LysoPC) is given as “neither of them inhibited the LysoPLA activity well”; at mouse LysoPLA (setting [2]), “neither of them inhibited the LysoPLA activity well”.
